Assay results from ChEMBL document CHEMBL3259791, “Discovery of (E)-3-((styrylsulfonyl)methyl)pyridine and (E)-2-((styrylsulfonyl)methyl)pyridine derivatives as anticancer agents: synthesis, structure-activity relationships, and biological activities” (J Med Chem, 2014).
The source made the active and inactive calls. No cut-off for these calls is given here.

What was measured:
[1] = test system: A2780; assay: Induction of apoptosis in human A2780 cells assessed as necrotic cells at 1 uM after 48 hrs by annexin V/PI double staining (reference value: 0.53%); assay type: functional
[2] = Apparent permeability across basolateral to apical side in human Caco2 cells; assay type: ADME, cell-based; conditions: Caco-2
[3] = AUC (0 to t) in mouse at 10 mg/kg, po after 24 hrs; assay type: ADME, organism-based; parameters: time < 24 hr, dose 10 mg/kg, route oral; conditions: plasma
[4] = Octanol-buffer partition coefficient, log D of the compound at pH 7.4 by shake-flask method; assay type: physicochemical
[5] = test system: A2780; assay: Induction of apoptosis in human A2780 cells assessed as early-stage apoptotic cells at 1 uM after 48 hrs by annexin V/PI double staining (reference value: 7.13%); assay type: functional
[6] = test system: WI-38; assay: Induction of apoptosis in human WI38 cells assessed as late-stage apoptotic cells at 0.06 uM after 48 hrs by annexin V/PI double staining (reference value: 16.26%); assay type: functional
[7] = test system: A2780; assay: Induction of apoptosis in human A2780 cells assessed as early-stage apoptotic cells at 0.06 uM after 48 hrs by annexin V/PI double staining (reference value: 7.13%); assay type: functional
[8] = test system: WI-38; assay: Induction of apoptosis in human WI38 cells assessed as early-stage apoptotic cells at 1 uM after 48 hrs by annexin V/PI double staining (reference value: 2.16%); assay type: functional
[9] = Half life in rat liver microsomes; assay type: ADME
[10] = test system: A2780; assay: Cell cycle arrest in human A2780 cells assessed as accumulation at G1 phase at 0.06 uM after 24 hrs by flow cytometric analysis (reference value: 54.89%); assay type: functional
[11] = test system: A2780; assay: Cell cycle arrest in human A2780 cells assessed as accumulation at S phase at […] after 24 hrs by flow cytometric analysis (reference value: 22.72%); assay type: functional
[12] = test system: MCF7; assay: Antiproliferative activity against ER positive human MCF7 cells assessed as cell growth inhibition after 72 hrs by MTT assay; assay type: functional; conditions: MCF7, 72 h
[13] = Apparent permeability across apical to basolateral side in human Caco2 cells; assay type: ADME, cell-based; conditions: Caco-2
[14] = test system: WI-38; assay: Cell cycle arrest in human WI38 cells assessed as accumulation at G1 phase at 1 uM after 24 hrs by flow cytometric analysis (reference value: 55.89%); assay type: functional
[15] = test system: A2780; assay: Induction of apoptosis in human A2780 cells assessed as early-stage apoptotic cells at […] after 48 hrs by annexin V/PI double staining (reference value: 7.13%); assay type: functional
[16] = test system: A2780; assay: Antiproliferative activity against human A2780 cells assessed as cell growth inhibition after 72 hrs by MTT assay; assay type: functional; conditions: A2780, 72 h
[17] = test system: WI-38; assay: Cell cycle arrest in human WI38 cells assessed as accumulation at S phase at 0.06 uM after 24 hrs by flow cytometric analysis (reference value: 16.25%); assay type: functional
[18] = test system: A2780; assay: Reduction in CDC25C level in human A2780 cells at 1 uM after 24 hrs by Western blot analysis; assay type: functional, cell-based
[19] = test system: A2780; assay: Cell cycle arrest in human A2780 cells assessed as accumulation at G1 phase at […] after 24 hrs by flow cytometric analysis (reference value: 54.89%); assay type: functional
[20] = test system: LNCaP; assay: Antiproliferative activity against AR positive human LNCAP cells assessed as cell growth inhibition after 72 hrs by MTT assay; assay type: functional
[21] = test system: A2780; assay: Reduction in Mcl1 level in human A2780 cells at 1 uM after 24 hrs by Western blot analysis; assay type: functional, cell-based
[22] = Dissociation constant, pKa of the compound by pH-metric method; assay type: physicochemical
[23] = test system: A2780; assay: Cell cycle arrest in human A2780 cells assessed as accumulation at subG1 phase at […] after 24 hrs by flow cytometric analysis (reference value: 0.62%); assay type: functional
[24] = target: Voltage-gated inwardly rectifying potassium channel KCNH2 (Homo sapiens, UniProt Q12809); assay: Inhibition of human ERG expressed in CHO cells
[25] = test system: A2780; assay: Induction of apoptosis in human A2780 cells assessed as late-stage apoptotic cells at 1 uM after 48 hrs by annexin V/PI double staining (reference value: 10.20%); assay type: functional
[26] = Oral bioavailability (0 to t) in mouse at 10 mg/kg after 24 hrs; assay type: ADME, organism-based; conditions: in vivo
[27] = test system: A2780; assay: Induction of apoptosis in human A2780 cells assessed as viable cells at 0.06 uM after 48 hrs by annexin V/PI double staining (reference value: 82.12%); assay type: functional; conditions: A2780, 48 h, read-out: Activity
[28] = Aqueous solubility of the compound by turbidimetric solubility assay; assay type: physicochemical; conditions: buffer
[29] = test system: A2780; assay: Induction of apoptosis in human A2780 cells assessed as necrotic cells at 0.06 uM after 48 hrs by annexin V/PI double staining (reference value: 0.53%); assay type: functional
[30] = test system: WI-38; assay: Cell cycle arrest in human WI38 cells assessed as accumulation at subG1 phase at […] after 24 hrs by flow cytometric analysis (reference value: 10.53%); assay type: functional
[31] = test system: WI-38; assay: Cell cycle arrest in human WI38 cells assessed as accumulation at S phase at […] after 24 hrs by flow cytometric analysis (reference value: 16.25%); assay type: functional
[32] = test system: WI-38; assay: Induction of apoptosis in human WI38 cells assessed as caspase-3/7 activation up to 1 uM after 24 hrs by using Apo-ONE homogeneous caspase-3/7 kit; assay type: functional, cell-based
[33] = AUC (0 to t) in mouse at 40 mg/kg, po after 24 hrs; assay type: ADME, organism-based; parameters: time < 24 hr, dose 40 mg/kg, route oral; conditions: plasma
[34] = test system: DU-145; assay: Selectivity ratio of IC50 for human WI38 cells to IC50 for AR negative human DU145 cells; assay type: functional
[35] = test system: A2780; assay: Reduction in Mcl1 level in human A2780 cells at 0.03 uM after 24 hrs by Western blot analysis; assay type: functional, cell-based
[36] = Oral bioavailability (0 to infinity) in mouse at 40 mg/kg after 24 hrs; assay type: ADME, organism-based; conditions: in vivo
[37] = test system: HCT-116; assay: Selectivity ratio of IC50 for human WI38 cells to IC50 for human HCT116 cells; assay type: functional
[38] = test system: HCT-116; assay: Ratio of ON01910 IC50 to compound IC50 for human HCT116 cells; assay type: functional
[39] = test system: LNCaP; assay: Selectivity ratio of IC50 for human WI38 cells to IC50 for AR positive human LNCAP cells; assay type: functional
[40] = test system: HeLa; assay: Ratio of ON01910 IC50 to compound IC50 for human HeLa cells; assay type: functional
[41] = test system: A2780; assay: Antitumor activity against human A2780 cells xenografted in mouse assessed as delay tumor growth at 50 mg/kg, po administered every second day for 2 weeks; assay type: functional
[42] = Cmax in mouse at 40 mg/kg, po after 24 hrs; assay type: ADME, organism-based; parameters: dose 40 mg/kg, route oral; conditions: in vivo
[43] = test system: A2780; assay: Reduction in CDC25C level in human A2780 cells at 0.03 uM after 24 hrs by Western blot analysis; assay type: functional, cell-based
[44] = test system: HeLa; assay: Selectivity ratio of IC50 for human WI38 cells to IC50 for human HeLa cells; assay type: functional
[45] = test system: PANC-1; assay: Selectivity ratio of IC50 for human WI38 cells to IC50 for human PANC1 cells; assay type: functional
[46] = test system: A2780; assay: Antitumor activity against human A2780 cells xenografted in mouse assessed as increase in life span at 50 mg/kg, po administered every second day for 2 weeks; assay type: functional
[47] = test system: A2780; assay: Selectivity ratio of IC50 for human WI38 cells to IC50 for human A2780 cells; assay type: functional

Chain of Voltage-gated inwardly rectifying potassium channel KCNH2 (Q12809 whole entry): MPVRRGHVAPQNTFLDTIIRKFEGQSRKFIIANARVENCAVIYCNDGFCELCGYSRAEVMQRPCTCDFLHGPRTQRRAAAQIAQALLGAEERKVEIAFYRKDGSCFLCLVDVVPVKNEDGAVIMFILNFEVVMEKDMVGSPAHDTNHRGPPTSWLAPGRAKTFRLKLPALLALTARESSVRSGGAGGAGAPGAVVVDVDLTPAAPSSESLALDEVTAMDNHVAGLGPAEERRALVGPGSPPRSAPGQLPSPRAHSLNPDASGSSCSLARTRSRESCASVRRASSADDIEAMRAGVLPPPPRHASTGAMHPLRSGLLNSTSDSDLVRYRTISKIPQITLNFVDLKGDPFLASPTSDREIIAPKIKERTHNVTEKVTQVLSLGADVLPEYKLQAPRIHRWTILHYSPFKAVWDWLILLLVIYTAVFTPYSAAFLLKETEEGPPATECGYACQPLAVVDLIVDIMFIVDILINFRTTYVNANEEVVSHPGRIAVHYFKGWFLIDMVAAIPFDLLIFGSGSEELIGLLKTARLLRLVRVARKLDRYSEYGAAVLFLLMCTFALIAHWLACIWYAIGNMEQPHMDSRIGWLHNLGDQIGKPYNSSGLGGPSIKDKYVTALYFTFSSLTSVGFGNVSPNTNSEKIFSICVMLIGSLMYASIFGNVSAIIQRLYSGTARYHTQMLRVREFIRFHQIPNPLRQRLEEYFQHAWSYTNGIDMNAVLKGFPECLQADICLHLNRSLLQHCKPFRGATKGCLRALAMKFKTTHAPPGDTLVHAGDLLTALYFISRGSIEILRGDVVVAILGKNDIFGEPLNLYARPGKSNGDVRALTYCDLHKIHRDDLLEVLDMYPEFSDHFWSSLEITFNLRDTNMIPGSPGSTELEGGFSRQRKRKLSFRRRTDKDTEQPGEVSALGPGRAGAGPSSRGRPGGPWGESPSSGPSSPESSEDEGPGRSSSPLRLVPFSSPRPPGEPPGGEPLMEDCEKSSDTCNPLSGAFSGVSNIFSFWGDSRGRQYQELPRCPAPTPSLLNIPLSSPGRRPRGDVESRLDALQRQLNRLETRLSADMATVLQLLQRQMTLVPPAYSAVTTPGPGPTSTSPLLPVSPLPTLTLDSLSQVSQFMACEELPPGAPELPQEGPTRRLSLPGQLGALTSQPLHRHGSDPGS

Compound: COc1cc(OC)c(/C=C/S(=O)(=O)Cc2ccc(OC)c(NS(C)(=O)=O)n2)c(OC)c1
- Activity [1]: 1.31%
- Papp B→A [2]: 53.4 ×10⁻⁶ cm/s
- AUC(0-t) at 24 h [3]: 5.6 µM·h
- logD [4]: 1.53
- Activity [5]: 38.36%
- Activity [6]: 18.51%
- Activity [7]: 4.67%
- Activity [8]: 10.08%
- half-life [9]: 1.88 h
- Activity [10]: 57.73%
- Activity [11]: 22.53%
- GI50 [12]: 468 nM
- Papp A→B [13]: 3.15 ×10⁻⁶ cm/s
- Activity [14]: 58.17%
- Activity [15]: 5.55%
- GI50 [16]: 406 nM
- Activity [17]: 14.51%
- inhibition [18]: Active
- Activity [19]: 57.35%
- GI50 [20]: 450 nM
- inhibition [21]: Active
- pKa [22]: 7.28
- Activity [23]: 0.77%
- IC50 [24]: > 25000 nM
- Activity [25]: 24.63%
- bioavailability [26]: 50%
- viability at 0.06 µM [27]: 87.4%
- solubility kinetic [28]: > 100 µM
- Activity [29]: 0.55%
- Activity [30]: 11.06%
- Activity [31]: 13.26%
- Activity [32]: inactive

Compound: COc1cc(OC)c(/C=C/S(=O)(=O)Cc2ccc(OC)c(N)n2)c(OC)c1
- AUC(0-t) at 24 h [33]: 23.1 µM·h
- Activity [1]: 1.11%
- Papp B→A [2]: 26.2 ×10⁻⁶ cm/s
- Ratio IC50 [34]: >1400
- inhibition [35]: Active
- logD [4]: 2.41
- bioavailability [36]: 68%
- Activity [5]: 55.45%
- Ratio IC50 [37]: >1400
- Activity [6]: 13.04%
- Activity [7]: 38%
- Activity [8]: 2.86%
- half-life [9]: 0.25 h
- Activity [10]: 12.87%
- Ratio IC50 [38]: 10
- Activity [11]: 22.54%
- GI50 [12]: 6 nM
- Ratio IC50 [39]: >1400
- Papp A→B [13]: 33.1 ×10⁻⁶ cm/s
- Ratio IC50 [40]: 10
- Activity [41]: 52%
- Cmax [42]: 2500 nM
- Activity [14]: 60.09%
- Activity [15]: 46.99%
- GI50 [16]: 7 nM
- Activity [17]: 9.81%
- Activity [19]: 14.1%
- inhibition [43]: Active
- GI50 [20]: 3 nM
- Ratio IC50 [44]: >1400
- pKa [22]: 4.67
- Activity [23]: 12.42%
- IC50 [24]: > 25000 nM
- Activity [25]: 21.09%
- viability at 0.06 µM [27]: 33.3%
- Ratio IC50 [45]: >1400
- solubility kinetic [28]: > 100 µM
- Activity [29]: 2.88%
- Activity [30]: 12.08%
- Activity [31]: 9.5%
- Activity [46]: 80%
- Activity [32]: inactive
- Ratio IC50 [47]: >1400
